For data set [1], the system named is Sialic acid of esophagus mucous membrane. The data set is described as follows: Amount of sialic acid in esophagus tissue. As to conditions: esophagus tissue of reflux rats; for Sialic acid: 10 mg/kg, normal group 125.2, control group 95.2; for content of sialic acid compared to that of a control group: doses as in Table 3. The format is in vivo, rat. The procedure:
(§1) On the Lonicerae Flos extract, the Lonicerae Flos fraction, or a compound isolated from the fraction (3,5-di-O-caffeoylquinic acid or 4,5-di-O-caffeoylquinic acid), having a therapeutic effect in a rat model of gastroesophageal reflux disease, the amounts of Hexosamine and Sialic acid constituting esophagus mucous membrane of esophagus tissue were measured.
Esophagus tissues of all test groups, obtained from <Experimental Example 1>, were immersed in ethanol, and then left in acetone for 2 days, and in ether for 1 day, followed by cleaning and drying. The test sample was weighed, added with 5 ml of 0.1N H2SO4 solution, and hydrolyzed by being heated at 80° C. for 1 hour. Then, the resultant product was cooled at room temperature, and filtered. 0.2 ml of filtrate was mixed with 0.1 ml of 0.2M periodate solution, and left at room temperature for 20 minutes. Then, the resultant solution was mixed with 1 ml of 10% arsenite solution until a yellowish brown color disappeared. 3 ml of 0.6% TBA solution was added thereto, followed by mixing. The resultant product was covered with a cap, and heated at 100° C. for 15 minutes, cooled, and left in a cool bath for 5 minutes, followed by cen- trifugation at 3,000 rpm for 10 minutes. A supernatant was collected, and its absorbency was measured at 549nm. From a calibration curve obtained by using N-acetylneuraminic acid, the content of Sialic acid was calculated.

For data set [2], the system named is rat model of gastroesophageal reflux disease. The data set is described as follows: Effect on esophagus lesion in rat model of gastroesophageal reflux disease. The format is in vivo. To be noted: 10 mg/kg oral in 0.5% CMC, 1 h before reflux induction; esophagus examined 6 h after operation; SD male rats. From the text:
In order to determine the therapeutic effect on acute/chronic gastroesophageal reflux disease by the inventive Lonicerae Flos fraction or the compound represented by Formula 1 or 2, the method for measuring the therapeutic effect on gastroesophageal reflux disease (Nakamura K et al; Jpn. J. Pharmacol., 32(3), 445-456, 1982: Okabe S, et al; Jpn. J. Pharmacol., 69(4), 317-323, 1995) was applied to the present experiments.
In order to determine the therapeutic effect of the inventive Lonicerae Flos extract, the inventive Lonicerae Flos fraction, or the compound represented by Formula 1 or 2 in a rat model of gastroesophageal reflux disease, Spraugue-Dawley(SD)-based male rats aged 7 weeks were fasted for 24 hours and supplied with water in a sufficient amount. The rats were weighed, and were orally administered with omeprazole (Sigma-Aldrich) as a control drug and with Lonicerae Flos extract/fraction as a test drug, which are suspended in a 0.5% CMC (Carboxymethyl cellulose) solution, one hour before induction of reflux. For reflux induction, the abdomen of the rat was opened, and a pylorus region between stomach and duodenum was ligated. Then, a stomach-esophagus sphincter between esophagus and stomach was injured by longitudinal incision of 1 cm so that gastric acid can be flowed backward due to abnormal relaxation of the sphincter. Also, a transition zone between forestomach and glandular portion was ligated by thread, and the abdomen was sutured by cotton thread. 6 hours after the completion of the operation, inhalation anesthesia was performed, and the esophagus was extracted. Then, the size of an esophagus lesion and the extent of esophagitis were observed. In Table 1, the esophagus lesion inhibition ratio (%) of a test group administered with the inventive test material, with respect to a control group, is noted.

Data set [3] deals with Hexosamine of esophagus mucous membrane. The data set is described as follows: Amount of hexosamine in esophagus tissue. The format is in vivo, rat. As to conditions: esophagus tissue of reflux rats; for Hexosamine: 10 mg/kg, normal group 1101.3, control group 925.3; for content of hexosamine compared to that of a control group: doses as in Table 3. The procedure:
as §1
Esophagus tissues of all test groups, obtained from <Experimental Example 1>, were immersed in ethanol, and then left in acetone for 2 days, and in ether for 1 day, followed by cleaning and drying. The test sample was weighed, added with 5 ml of 4N HCl solution, and hydrolyzed by being heated at 100° C. for 9 hours. Then, the resultant product was cooled at room temperature, and filtered. 0.5 ml of filtrate was added with 0.5 ml of 4N NaOH solution for neutralization, and then added with 1 ml of acetylacetone solution, followed by shaking. Then, the resultant product was heated at 100° C. for 20 minutes, and cooled, and then added with 5 ml of isoamylalcohol, followed by shaking for 2 minutes. After centrifugation at 3,000 rpm for 10 minutes, 2 ml of supernatant was collected. The supernatant was added with 0.5 ml of a color agent, and left for 15 minutes, and then its absorbency was measured at 530 nm. From a calibration curve obtained by using Glucosamine, the content of hexosamine was calculated.

The subject of data set [4] is TNF-α. Nature of the data set: TNF-alpha level in esophagus tissue (ELISA), anti-inflammatory effect. The format is in vivo, rat. As to conditions: 10 mg/kg; for inflammation inhibition ratio: calculated from TNF-alpha of test, control and normal groups; for TNF-alpha: esophagus tissue of reflux rats, normal group 120.3, control group 325.2. The procedure:
On the Lonicerae Flos extract, the Lonicerae Flos fraction, or a compound isolated from the fraction (3,5-di-O-caffeoylquinic acid or 4,5-di-O-caffeoylquinic acid), having a therapeutic effect in a rat model of gastroesophageal reflux disease, in order to measure an anti-inflammatory effect within esophagus tissue, a level of Tumor necrosis factor-alpha(TNF-α) playing an important role in inflammatory disease mechanism was measured within esophagus tissue of a rat (Nippon Rinsho, 68(5), 819-822, 2010). As a kit for this measurement, rat TNF-α ELISA kit (Cat No:88-7340, eBioscience) was used. Each of esophagus tissues of all test groups, obtained from <Experimental Example 1>was introduced into homogenizing buffer (10×)(pH 7.4: 1.15% KCl, 50 mM Tris-HCl, 1 mM EDTA), followed by grinding by a homogenizer. Then, after centrifugation at 3,000 rpm or more for 10 minutes, the homogenized tissue liquid (supernatant) was separated, and then stored in a deep freezer for the use in the experiment. After all antigen-antibody reactions were completed, the absorbency was measured by ELISA Reader (BIORAD) at 450 nm, and then the amount of TNF-α in esophagus tissue was expressed by using a reference curve of absorbency. The inflammation inhibition ratio (%) of a test material was calculated by the following equation. Also, the anti-inflammatory effect by the Lonicerae Flos extract in a rat model of gastroesophageal reflux disease is noted in Table 2.
Inflammation inhibition ratio (%)=1−((test group-normal group)/(control group-normal group))×100

In data set [5] the test system is lipid peroxidation of esophagus tissue. The data set is described as follows: Lipid peroxide (malondialdehyde) of esophagus tissue in rat model of gastroesophageal reflux disease. The format is in vivo. As to conditions: esophagus mucous membrane from Experimental Example 1 (10 mg/kg oral); malondialdehyde by TBA, 532 nm. The procedure: A test for finding out the inhibition of lipid peroxidation by the inventive Lonicerae Flos extract, the inventive Lonicerae Flos fraction, or a compound isolated from the fraction (3,5-di-O-caffeoylquinic acid or 4,5-di-O-caffeoylquinic acid) was carried out. the esophagus mucous membrane extracted in Experimental Example 1 was taken out, and added in 1 ml of tris-hydrochloric acid buffer solution (pH 7.0), followed by ultrasonic grinding. After centrifugation (600×g, 4° C.) for 5 minutes, 0.3 ml of supernatant was added with 0.9 ml of trichloroacetic acid (8%). Then, after centrifugation (10,000×g, 4° C.) for 5 minutes, 1 ml of supernatant was added with 0.25 ml of TBA(1%), and then with 2 ml of n-butanol. Then, after centrifugation (3,000×g , 4° C.) for 5 minutes, on 1 ml of butanol fraction, the absorbency was measured at 532 nm. As a reference material, malonaldehyde bis-dimethyl acetal was used. The result was expressed as nmol/mg protein, and protein quantitative analysis was carried out by Bradford assay.

Data set [6] concerns SPF SD-based female/male rats. The data set is described as follows: Toxicity test of acute oral administration. The format is in vivo. As to conditions: single oral dose 1.0 g/kg or 2.0 g/kg in 0.5% CMC; 5 female and 5 male SD rats; autopsy after 7 days; safe up to 2.0 g/kg. The procedure:
By applying the Lonicerae Flos extract of Example 1, fractions of Examples 4 and 5, and 3,5-di-O-caffeoylquinic acid and 4,5-di-O-caffeoylquinic acid from Example 6, to SPF (specific pathogen free) SD-based female/male rats aged 6 weeks, an acute toxicity test was carried out.
Female 5 rats and male 5 rats of each test group were orally administered with the test materials from Examples in a dose of 1.0 g/kg or 2.0 g/kg. The test materials were suspended in 0.5% CMC (Carboxymethyl cellulose) solution before the administration. When the test materials were administered, mortality, clinical symptoms, and weight changes of animals were observed. 7 days after the administration, through autopsy, a hematologic examination and a blood chemical test were carried out. Then, with the naked eye, it was observed if there was abnormality in abdominal cavity organs and thoracic cage organs. […] Also, through weight measurement, a blood test, a blood chemical test, and autopsy results, an abnormal change was not observed.

Structures are written as SMILES.

Compound `COc1ccc2[nH]c([S+]([O-])Cc3ncc(C)c(OC)c3C)nc2c1` (centres unmarked) [omeprazole, reference compound] showed a Sialic acid in data set [1] of 132.2 μg/100 mg dry tissue. Moreover, in data set [2], the “esophagus lesion inhibition ratio with respect to control group” value (shortened to “esophagus lesion inhibition ratio”) was found to be 83%. In addition, the Hexosamine in data set [3] is 1176.3 μg/100 mg dry tissue. For the same compound, in data set [4], the inflammation inhibition ratio is 80.5% and the TNF-alpha amounted to 160.2 pg/mg Tissue weight. Moreover, the “lipid peroxidation inhibiting ratio” value in data set [5] is 53.9%.

For `O=C(/C=C/c1ccc(O)c(O)c1)OC1CC(O)(C(=O)O)CC(OC(=O)/C=C/c2ccc(O)c(O)c2)C1O` (centres unmarked) [3,5-di-CQA, 3,5-di-O-caffeoylquinic acid], in data set [1], the Sialic acid turned out to be 155.3 μg/100 mg dry tissue and the “content of sialic acid compared to that of a control group” value was “significantly increased”. In addition, the “esophagus lesion inhibition ratio” value in data set [2] stood at 90%. Further, the “acute oral toxicity (mortality, clinical symptoms, weight changes, blood tests, autopsy)” value in data set [6] was “not showing toxicity”. Also, in data set [3], the Hexosamine is given as 1445.2 μg/100 mg dry tissue and the “content of hexosamine compared to that of a control group” value was “significantly increased”. In data set [4], the inflammation inhibition ratio is on record as 87.8% and the TNF-alpha was determined as 145.3 pg/mg Tissue weight. In data set [5], the “lipid peroxidation inhibiting ratio” value turned out to be 49.1%.

With `O=C(/C=C/c1ccc(O)c(O)c1)O[C@H]1[C@H](O)C[C@](O)(C(=O)O)C[C@H]1OC(=O)/C=C/c1ccc(O)c(O)c1` [4,5-di-CQA, 4,5-di-O-caffeoylquinic acid], in data set [1], the Sialic acid is recorded as 148.1 μg/100 mg dry tissue and the “content of sialic acid compared to that of a control group” value is “significantly increased”. Moreover, the “esophagus lesion inhibition ratio” value in data set [2] is 81%. In addition, in data set [3], the Hexosamine came out at 1380.2 μg/100 mg dry tissue and the “content of hexosamine compared to that of a control group” value was “significantly increased”. Besides, in data set [4], the inflammation inhibition ratio is on record as 85.5% and the TNF-alpha came out at 150.1 pg/mg Tissue weight. In addition, the “lipid peroxidation inhibiting ratio” value in data set [5] amounted to 50.2%.
